Test results from patent US20060276485A1, “Substituted piperidine and piperazine derivatives as melanocortin-4 receptor modulators” (priority 2003, published 2006).
“Also recorded” adds a separate entry of the source. Where two headings read alike, the source gives them in different places.

Key:
[1] = biological target: T1, human melanocortin-4 receptor (hMC4-R) (Homo sapiens, UniProt P32245); test: Membrane binding assay: competition with fluorescence labeled NDP-alpha-MSH, fluorescence polarization
T1 construct: expressed in transfected cells; host or cells: HEK293 cells
T1 sequence (P32245 whole entry): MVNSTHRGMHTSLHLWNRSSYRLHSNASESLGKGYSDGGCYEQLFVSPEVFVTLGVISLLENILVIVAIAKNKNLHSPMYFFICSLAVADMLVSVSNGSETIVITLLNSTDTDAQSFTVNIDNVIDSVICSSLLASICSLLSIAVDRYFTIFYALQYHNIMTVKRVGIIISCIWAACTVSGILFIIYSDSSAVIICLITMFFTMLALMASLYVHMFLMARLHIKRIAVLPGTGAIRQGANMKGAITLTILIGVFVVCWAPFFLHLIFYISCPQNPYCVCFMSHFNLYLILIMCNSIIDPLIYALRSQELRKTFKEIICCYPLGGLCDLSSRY
Protocol: A membrane binding assay is used to identify competitive inhibitors of fluorescence labeled NDP-alpha-MSH binding to HEK293 cell membrane preparations expressing human melanocortin receptors.
The test compound or unlabeled NDP-alpha-MSH is dispensed at varying concentrations to a 384 well microtiter plate. Fluorescence labeled NDP-alpha-MSH is dispensed at a single concentration, followed by addition of membrane preparations. The plate is incubated for 5 h at room temperature.
The degree of fluorescence polarization is determined with a fluorescence polarization microplate reader.

[2] = biological target: T1, human melanocortin-4 receptor (hMC4-R); test: Functional cellular cAMP assay in HEK293 cells, fluorescence polarization; assay type: cell-based
Protocol: A functional cellular assay, based on competition between unlabeled CAMP and a fixed quantity of fluorescence labeled CAMP for a limited number of binding sites on a CAMP specific antibody, is used to discriminate melanocortin receptor agonists from antagonists by fluorescence polarization.
HEK293 cells expressing one of the human melanocortin receptors are transferred to 384 well microtiter plates, an appropriate amount of CAMP antibody is added, followed by the addition of different concentrations of the test compound to effect cAMP production. Cells are lysed and a fluorescence labeled cAMP conjugate is dispensed. The plate is read on a fluorescence polarization microplate reader and the amount of cAMP produced as a response to a test compound is compared to the production of CAMP resulting from stimulation with NDP-alpha-MSH. […]

[3] = Spontaneous feeding paradigm: food intake in rats; assay type: in vivo, male Wistar rats; conditions: for increase in cumulative food intake: compared to vehicle; for activity in the spontaneous feeding paradigm: significant increase in food intake at dose of 3 to 30 mg/kg p.o.
Protocol: Food intake in rats is measured after i.p. or p.o. administration of the test compound (see e.g. Chen, A. S. et al. Transgenic Res 2000 April 9(2):145-54).
Selected Examples of the present invention were active in the rat model at 3, 10 or 30 mg/kg after i.p. and p.o. administration of the test compound, respectively, using male Wistar rats (n=4).

[4] = biological target: T2, melanocortin-4 receptor (Homo sapiens, UniProt P32245); conditions: J. Med. Chem. 2004, 47, 744-755; read-out: melanocortin-4 receptor binding Ki; cited from earlier work
T2 sequence (P32245 whole entry): as above

[5] = biological target: T2, melanocortin-4 receptor; conditions: cited from earlier work; for EC50: read-out: melanocortin-4 receptor activation EC50
[6] = Bioorg. Med. Chem. Lett. 2003, 13, 3793-3796

SMILES	IC50 [1]	% activation functional assay ([2]; relative to NDP-alpha-MSH)	further results
O=C(N[C@@H](Cc1ccc(Cl)cc1)C(=O)N1CCC(c2ccccc2CN2CCCC2=O)CC1)c1cc(=O)c2ccccc2o1 [Example 1]	200 nM	does not activate; also recorded: no activation	increase in cumulative food intake ([3]; 30 mg/kg p.o., 4 hours following administration): 159%; increase in cumulative food intake ([3]; 30 mg/kg p.o., 6 hours following administration): 131%; increase in cumulative food intake ([3]; 30 mg/kg p.o., 7 hours following administration): 148%; activity in the spontaneous feeding paradigm [3]: active
COc1ccc2oc(C(=O)N[C@@H](Cc3ccc(Cl)cc3)C(=O)N3CCC(c4ccccc4CN4CCCC4=O)CC3)cc(=O)c2c1 [Example 17]			increase in cumulative food intake ([3]; 10 mg/kg p.o., 2 hours following administration): 3100%; increase in cumulative food intake ([3]; 10 mg/kg p.o., 4 hours following administration): 540%; activity in the spontaneous feeding paradigm [3]: active
O=C(N[C@H](Cc1ccc2ccccc2c1)C(=O)N1CCC(c2ccccc2CN2CCCC2=O)CC1)c1cc(=O)c2ccccc2o1 [Example 91]	120 nM	does not activate; also recorded: no activation	
O=C(N[C@H](Cc1ccc(Cl)cc1)C(=O)N1CCC(c2ccccc2CN2CCC2=O)CC1)c1cc(=O)c2ccccc2o1 [Example 178]	200 nM	does not activate; also recorded: no activation	
O=C(N[C@@H](Cc1ccc(Cl)cc1)C(=O)N1CCN(c2ccccc2CN2CCCC2=O)CC1)c1cc(=O)c2ccccc2o1 [Example 181]	770 nM	does not activate; also recorded: no activation	
O=C(N[C@H](Cc1ccc(Cl)cc1)C(=O)N1CCN(c2ccccc2CN2CCCC2=O)CC1)c1cc(=O)c2ccccc2o1 [Example 182]	61 nM		% activation functional assay ([2]; at 10 μM): 15%@10 μM; % activation functional assay ([2]; at 10 μM, listed as example 182): little or no activation; increase in cumulative food intake ([3]; 3 mg/kg p.o., 2 hours following administration): 273%; increase in cumulative food intake ([3]; 3 mg/kg p.o., 4 hours following administration): 204%; increase in cumulative food intake ([3]; 3 mg/kg p.o., 6 hours following administration): 156%; increase in cumulative food intake ([3]; 3 mg/kg p.o., 7 hours following administration): 197%; activity in the spontaneous feeding paradigm [3]: active
O=C(N[C@H](Cc1ccc2ccccc2c1)C(=O)N1CCN(c2ccccc2CN2CCCC2=O)CC1)c1cc(=O)c2ccccc2o1 [Example 267]	100 nM	does not activate; also recorded: no activation	
CS(=O)(=O)Nc1ccccc1N1CCN(C(=O)[C@@H](Cc2ccc(Cl)cc2)NC(=O)[C@H]2Cc3ccccc3CN2)CC1 [WO03009850 (example 1)]	500 nM	96%	EC50 [2]: 3700 nM; Ki [4]: 220 nM; stimulation of melanocortin-4 receptor [5, 6]: 100%; EC50 [5, 6]: 380 nM; EC50 ([5]; J. Med. Chem. 2004, 47, 744-755): 16 nM
O=C(N[C@H](Cc1ccc(Cl)cc1)C(=O)N1CCC(c2ccccc2CN2CCCC2=O)CC1)c1cc(=O)c2ccccc2o1 [example 2]	36 nM	43%	EC50 [2]: 5700 nM

Further lines, with some results ahead:

IC50 [1]	SMILES	% activation functional assay ([2]; relative to NDP-alpha-MSH)	further results
200 nM	O=C(N[C@@H](Cc1ccc(Cl)cc1)C(=O)N1CCC(c2ccccc2CN2CCCCC2=O)CC1)c1cc(=O)c2ccccc2o1 [Example 92]	does not activate; also recorded: no activation	
51 nM	O=C(N[C@H](Cc1ccc(Cl)cc1)C(=O)N1CCC(c2ccccc2CN2CCCCC2=O)CC1)c1cc(=O)c2ccccc2o1 [Example 93]	does not activate; also recorded: no activation	
500 nM	O=C(N[C@@H](Cc1ccc(Cl)cc1)C(=O)N1CCC(c2ccccc2CN2CCCCCC2=O)CC1)c1cc(=O)c2ccccc2o1 [Example 179]	does not activate; also recorded: no activation	
47 nM	O=C(N[C@H](Cc1ccc(Cl)cc1)C(=O)N1CCC(c2ccccc2CN2CCCCCC2=O)CC1)c1cc(=O)c2ccccc2o1 [Example 180]	does not activate; also recorded: no activation	
